Data on 4 molecules can be found in PMC4980028, “Discovery of a Series of Acridinones as Mechanism-Based Tubulin Assembly Inhibitors with Anticancer Activity” (PLoS ONE, 2016).

Read-outs that look alike come from different tables or passages of the source.

Data set [1] concerns MDA-MB-231 cells. Put plainly: Cell-cycle analysis by flow cytometry. Format: cell-based, human. The note with it: 48 h, 1 or 3 μM, synchronized culture. Here is the method:
MDA-MB-231 cells were added at a density of 5 x 10^5 cells in 25 cm^2 culture bottles (TPP^TM) with 5 mL of medium supplemented with 10% FBS. After 36 h, the media was removed, and 5 mL of fresh media without FBS was added. The bottles were then incubated for 48 h for cell-cycle synchronization. Then, the cells were treated with the test compounds (1 or 3 μM) for 48 h. Subsequently, the cells were harvested by trypsinization, and their chromatin was fixed and stained following the manufacturer’s instructions (cat. no. 340242, BD Biosciences^TM). Shortly thereafter, the cells were centrifuged at 300 rcf for 5 min and resuspended in 1 mL of buffer (sodium citrate, sucrose, and DMSO) three times. From this suspension, 1 x 10^6 cells were centrifuged at 400 rcf for 5 min, resuspended in 250 μL of solution A (trypsin in a spermine tetrahydrochloride detergent buffer) and incubated for 10 min at room temperature. Next, 200 μL of solution B (trypsin inhibitor and ribonuclease A in citrate-stabilizing buffer with spermine tetrahydrochloride) was added, and the suspension was incubated for 10 min at room temperature. Finally, 200 μL of solution C (propidium iodide (PI) and spermine tetrahydrochloride in citrate stabilizing buffer) was added, and the sample was incubated for 15 min in the refrigerator. The samples were then analyzed by flow cytometry using a BD Accuri C5 (BD Biosciences^TM) system (excitation at 488 nm and emission detected with a 585/40 nm filter).
(In general: In flow cytometry, cells or beads pass a laser one at a time.)

For the next data set, the system named is FGH. The data set is described as follows: Cytotoxicity assay (MTS). Format: cell-based, human. The note with it: for IC50: 72 h MTS assay, normal fibroblasts; for cell death in FGH cells: concentrations around the IC50 values in MDA-MB-231 cells. As to the method:
(§1) Then, 20 μL of the MTS reagent (CellTiter 96® AQueous One Solution Cell Proliferation Assay, Promega) was added to the wells, and the cells were incubated for 3 to 4 h at 37°C. Next, absorbance was measured at 490 nm using a spectrophotometer (SpectraMax Plus384, Molecular Devices). The percentage of unviable cells was determined in relation to the control wells, and at least two independent experiments were carried out for each test compound.
For orientation: Tetrazolium dyes change colour on reduction, which living cells bring about.

A further data set relates to MDA-MB-231. Put plainly: Cytotoxicity assay (MTS). Format: cell-based, human. As to conditions: for IC50: 72 h MTS assay; for dead cells in MTS studies: similar concentrations as apoptosis analyses. As to the method: as §1, with “MDA-MB-231, DU-145 and FGH cell lines were plated at a concentration of 4 x 10^3 cells/well in 96-well culture plates (TPP^TM). After 24 h, 10 concentrations (100–0.16 μM) of the test compounds were added in triplicate to the wells, and the plates were incubated for 72 h at 37°C in a 5% CO2 humidified atmosphere (if necessary). Then,” for “Then,”

The next data set has as its system DU-145. Put plainly: Cytotoxicity assay (MTS). Format: cell-based, human. As to conditions: 72 h MTS assay. Here is the method: as §1, with “MDA-MB-231, DU-145 and FGH cell lines were plated at a concentration of 4 x 10^3 cells/well in 96-well culture plates (TPP^TM). After 24 h, 10 concentrations (100–0.16 μM) of the test compounds were added in triplicate to the wells, and the plates were incubated for 72 h at 37°C in a 5% CO2 humidified atmosphere (if necessary). Then,” for “Then,”

The test system of data set [2] is MDA-MB-231 cells. Put plainly: Wound healing assay. The data set is classed as cell-based, human. As to conditions: 10 μM, 22 h. Here is the method:
To qualitatively evaluate directional cell migration, MDA-MB-231 cells were seeded at a density of 1 x 10^5 cells/well in 24-well culture plates (TPP^TM) and allowed to reach a confluent monolayer. Then, the wells were scratched using a sterile 100 μL pipette tip. The medium was removed and fresh medium without FBS was added to clean the debris. Next, the cells were incubated for 22 h at 37°C with supplemented medium (10% FBS) and different concentrations of test compounds (10 μM, 1 μM and 0.250 μM). When measuring the wound closure, the wells were photographed under a 4X objective (Optiphase) at 0 and 22 h. The images were analyzed using Image J software, and two independent experiments were conducted in triplicate.

Data set [3] concerns MDA-MB-231 cells. Put plainly: Apoptosis analysis (FITC-Annexin V/PI flow cytometry). As to conditions: for dead cells: 72 h after treatment; for apoptotic cells: after 24 h. Format: cell-based, human. As to the method:
Apoptosis was measured by flow cytometry via double staining with FITC-Annexin V and PI (cat. no. 556570, BD Pharmigen^TM). Cells were prepared in the same way as described for the cell-cycle analysis, except that the cell-synchronization step was omitted in this case. After treatment with the test compounds for 24 or 72 h, the cells were harvested by trypsinization and centrifuged for 10 min at 150 rcf. The pellet was resuspended in annexin V binding buffer at a concentration of 10^6 cells/mL. Then, 100 μL of this suspension was collected and stained with 5 μL of PI and FITC-Annexin V for 15 min at room temperature in the dark. After this, 400 μL of annexin V binding buffer was added, and the samples were analyzed using a BD Accuri C5 cytometer with excitation at 488 nm and emission detected with 533/30 nm (FITC) and 670 LP nm (PI) filters.

The subject of data set [4] is MDA-MB-231 cells. Put plainly: Boyden chamber (transwell) migration assay. Format: cell-based, human. The note with it: MDA-MB-231, transwell, 6 h, read-out: IC50 Cell migration. Here is the method:
Transwells containing 0.3 cm^2 inserts with 8.0 μm pore polyethylene terephthalate membranes (Corning Falcon^TM) were used to quantify cell migration. MDA-MB-231 cells were added at a density of 4 x 10^4 cells/insert in serum-free media (300 μL) in the upper chambers. In the lower chambers, 700 μL of medium supplemented with 10% FBS was added. […] The systems were incubated at 37°C for 6 h. Next, the cells inside the insert were removed with a cotton swab and the cells under the membrane were fixed with methanol and stained with toluidine blue for 5 min. Pictures of the stained membrane were taken under a 10X objective (Optiphase), and the cells were quantified using NIS Elements software (NIKON). Two independent experiments were conducted in duplicate.

For data set [5], the target named is T1, tubulin (Sus scrofa, UniProt P02550+P02554). The data set is described as follows: Light-scattering-based tubulin polymerization assay. Format: biochemical. As to conditions: read-out: IC50 Tubulin assembly. As to the method: To independently confirm the ability of the compounds to inhibit tubulin assembly, a second tubulin polymerization assay was carried out. We added 20 μL aliquots of the test compounds solubilized in 10% DMSO (in triplicate) to the wells of a 96-well culture plate (TPP^TM). Then, 180 μL of 3 mg/mL tubulin (>97% pure, HTS03, Cytoskeleton) in G-PEM buffer (80 mM PIPES, 1 mM EGTA, 2 mM GTP, 1 mM MgCl2 and glycerol 5%, pH 7,0) was added to the wells, and the absorbance at 340 nm was measured every 40 s for 1 h using a SpectraMax Plus384.

Another data set in a line: Cytotoxicity assay (MTS). Format: cell-based, human. As to conditions: human, FGH cells (normal fibroblasts); 72 h MTS assay, normal fibroblasts. Here is the method: as §1
In data set [6] the target is T1, tubulin. Put plainly: Fluorescence-based tubulin polymerization assay. Format: biochemical. The note with it: read-out: IC50 Tubulin assembly. Here is the method: Tubulin polymerization assay kit B[…] (Cytoskeleton) was used according to the manufacturer's instructions. […] The curves were normalized, and the percentage of inhibition was calculated by comparing the polymerization reaction at 25 min relative to vehicle control.

T1 sequence (P02550 whole entry): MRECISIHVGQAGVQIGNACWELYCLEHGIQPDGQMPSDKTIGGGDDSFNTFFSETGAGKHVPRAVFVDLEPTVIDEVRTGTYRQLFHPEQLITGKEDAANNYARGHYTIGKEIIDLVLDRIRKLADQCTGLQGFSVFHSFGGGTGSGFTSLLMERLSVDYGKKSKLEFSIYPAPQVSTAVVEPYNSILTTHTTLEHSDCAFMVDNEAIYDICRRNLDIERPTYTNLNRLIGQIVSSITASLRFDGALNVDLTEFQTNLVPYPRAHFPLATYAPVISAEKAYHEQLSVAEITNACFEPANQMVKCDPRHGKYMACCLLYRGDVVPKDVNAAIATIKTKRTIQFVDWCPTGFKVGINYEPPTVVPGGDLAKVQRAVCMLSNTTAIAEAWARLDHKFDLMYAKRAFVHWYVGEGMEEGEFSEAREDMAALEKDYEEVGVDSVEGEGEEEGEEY
T1 sequence (P02554 whole entry): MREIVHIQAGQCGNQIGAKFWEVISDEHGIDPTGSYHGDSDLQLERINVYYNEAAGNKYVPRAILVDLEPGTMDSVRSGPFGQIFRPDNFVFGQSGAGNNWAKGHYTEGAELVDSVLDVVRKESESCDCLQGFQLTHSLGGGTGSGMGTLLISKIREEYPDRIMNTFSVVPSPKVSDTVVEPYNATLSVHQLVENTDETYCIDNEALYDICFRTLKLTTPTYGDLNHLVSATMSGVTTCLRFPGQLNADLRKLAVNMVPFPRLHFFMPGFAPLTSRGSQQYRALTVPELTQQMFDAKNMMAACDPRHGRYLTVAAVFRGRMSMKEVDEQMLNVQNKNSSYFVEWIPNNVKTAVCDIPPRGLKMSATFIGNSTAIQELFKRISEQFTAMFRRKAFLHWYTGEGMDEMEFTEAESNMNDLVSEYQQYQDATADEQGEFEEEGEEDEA

For the molecule `O=C1CCCC2=C1C(c1cccs1)c1ccc3ccccc3c1N2` (racemic) [Compound 9], the “cells arrested in G2” value in the data set on MDA-MB-231 cells [1] worked out at 53.6%. Moreover, the IC50 with FGH was more than 100 µM; in the data set on MDA-MB-231 it was 1.1 ± 0.2 µM; with DU-145, 1 ± 0.3 µM; in the data set on MDA-MB-231 cells [4], 1.345 ± 0.007 µM; on tubulin [5], 5 ± 2 µM. Besides, the “cell death in FGH cells” value in the data set on FGH was 13%. In the data set on MDA-MB-231, the “dead cells in MTS studies” value is reported as 71%. Also, the “inhibition of wound closure (cell migration)” value (“inhibition of wound closure” for short) in the data set with MDA-MB-231 cells [2] is given as “inhibit cell migration”. This molecule gave a dead cells with MDA-MB-231 cells [3] of 75%. Also, the apoptotic cells in the data set with MDA-MB-231 cells [3] worked out at 54.6%.

For `COc1cc2c(c(OC)c1OC)-c1ccc(OC)c(=O)cc1[C@@H](NC(C)=O)CC2` [Colchicine, colchicine, reference compound], the “cells arrested in G2” value in the data set with MDA-MB-231 cells [1] amounted to 42.9%. The molecule further registered an IC50 at 72 h in “Cytotoxicity assay (MTS)” of less than 0.02 µM. The IC50 in the data set with MDA-MB-231 was 0.02 ± 0.01 µM. This molecule also showed an IC50 in the data set on DU-145 of 0.025 ± 0.003 µM. In the data set on MDA-MB-231 cells [3], this molecule came in with a dead cells of 72% and an apoptotic cells of 65%.

As for `O=C1CCCC2=C1C(c1ccc3c(c1)OCO3)c1ccc3ccccc3c1N2` (stereo not drawn) [Compound 6], the IC50 at tubulin [6] was 13 ± 2 µM; in the data set on FGH, more than 100 µM; in the data set with MDA-MB-231, 3 ± 1 µM; in the data set on DU-145, 3.2 ± 0.7 µM; with MDA-MB-231 cells [4] it was 1.7 ± 0.7 µM. Besides, the “cells arrested in G2” value in the data set on MDA-MB-231 cells [1] is listed as 53.6%. Moreover, in the data set with FGH, the “cell death in FGH cells” value came out at 3%. Also, the “dead cells in MTS studies” value in the data set with MDA-MB-231 is 51%. The “inhibition of wound closure” value in the data set with MDA-MB-231 cells [2] is given as “inhibit cell migration”. Moreover, in the data set on MDA-MB-231 cells [3], the dead cells is 55%. This molecule also displayed an apoptotic cells in the data set on MDA-MB-231 cells [3] of 69.4%.

As to `O=C1CCCC2=C1[C@@H](c1cccc([N+](=O)[O-])c1)c1ccc3ccccc3c1N2` [Compound 7], the “cells arrested in G2” value in the data set with MDA-MB-231 cells [1] was 49.1%. Moreover, in the data set on FGH, the “SI (selectivity index)” value is more than 100 and the “cell death in FGH cells” value is 20%. Also, the IC50 at 72 h in the data set “Cytotoxicity assay (MTS)” was more than 100 µM. Moreover, the IC50 with MDA-MB-231 (Homo sapiens, MDA-MB-231) was found to be 0.19 ± 0.007 µM. Moreover, the “dead cells in MTS studies” value in the data set with MDA-MB-231 was 69%. The molecule also had an IC50 with DU-145 (Homo sapiens, DU-145) of 0.308 ± 0.05 µM. The “inhibition of wound closure” value in the data set on MDA-MB-231 cells [2] is listed as “inhibit cell migration”. In the data set with MDA-MB-231 cells [3], this molecule displayed a dead cells of 67% and an apoptotic cells of 54.2%. The IC50 in the data set with MDA-MB-231 cells [4] (Homo sapiens) is 0.294 ± 0.005 µM.
